Where two headings read alike, the source gives them in different places.
Legend:
[1] = system: hCMEC/D3 cells monolayer; assay: Permeability of dextran-FITC, sucrose, inulin and lucifer yellow across BBB monolayer
[2] = system: Caco-2 cells monolayer; set-up: method as in PMID 27336199, PMID 26797828; settings: cited from earlier work
[3] = molecular target: T1, Pgp (Homo sapiens, UniProt P08183); set-up: method as in PMID 27336199, PMID 26797828; settings: cited from earlier work
T1 construct: expressed in transfected cells; host or cells: MDCK (Madin-Darby Canine Kidney) cells, gift of Dr. Maria Alessandra Contino, University of Bari
T1 sequence (P08183 whole entry): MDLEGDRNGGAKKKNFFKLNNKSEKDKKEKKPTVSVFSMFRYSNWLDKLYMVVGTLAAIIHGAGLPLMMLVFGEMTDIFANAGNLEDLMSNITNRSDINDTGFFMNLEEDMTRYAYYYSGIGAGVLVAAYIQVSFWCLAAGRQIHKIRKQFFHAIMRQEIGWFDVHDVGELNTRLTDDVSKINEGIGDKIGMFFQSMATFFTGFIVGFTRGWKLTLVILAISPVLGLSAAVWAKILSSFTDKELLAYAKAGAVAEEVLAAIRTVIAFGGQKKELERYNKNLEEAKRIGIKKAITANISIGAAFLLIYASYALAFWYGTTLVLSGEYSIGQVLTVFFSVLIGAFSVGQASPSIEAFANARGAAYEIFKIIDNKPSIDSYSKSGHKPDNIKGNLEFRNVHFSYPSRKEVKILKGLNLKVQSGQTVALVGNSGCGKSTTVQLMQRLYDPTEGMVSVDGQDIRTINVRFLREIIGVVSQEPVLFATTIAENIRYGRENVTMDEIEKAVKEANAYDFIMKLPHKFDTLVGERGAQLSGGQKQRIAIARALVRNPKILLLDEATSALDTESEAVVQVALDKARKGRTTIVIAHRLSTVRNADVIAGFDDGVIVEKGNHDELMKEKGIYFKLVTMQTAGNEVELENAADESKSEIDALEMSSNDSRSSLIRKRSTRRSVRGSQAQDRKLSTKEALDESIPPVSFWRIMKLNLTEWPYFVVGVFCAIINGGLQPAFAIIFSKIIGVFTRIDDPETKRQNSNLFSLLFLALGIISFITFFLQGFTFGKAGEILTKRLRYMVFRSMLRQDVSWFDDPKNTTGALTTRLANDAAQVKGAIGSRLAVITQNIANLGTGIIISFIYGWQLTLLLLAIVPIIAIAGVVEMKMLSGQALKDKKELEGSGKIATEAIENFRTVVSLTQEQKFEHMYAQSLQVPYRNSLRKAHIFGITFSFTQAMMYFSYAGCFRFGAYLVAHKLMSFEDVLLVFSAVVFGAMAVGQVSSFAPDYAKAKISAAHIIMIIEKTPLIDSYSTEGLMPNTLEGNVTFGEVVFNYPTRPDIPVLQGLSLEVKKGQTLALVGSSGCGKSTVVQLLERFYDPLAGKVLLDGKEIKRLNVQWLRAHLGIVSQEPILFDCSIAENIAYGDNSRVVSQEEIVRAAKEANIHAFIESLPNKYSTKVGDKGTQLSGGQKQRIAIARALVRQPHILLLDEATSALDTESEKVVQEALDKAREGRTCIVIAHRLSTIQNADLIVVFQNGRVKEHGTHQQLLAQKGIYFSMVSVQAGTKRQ

[4] = system: hCMEC/D3 cells monolayer; assay: Doxorubicin delivery across BBB monolayer (Transwell); settings: 25 μM MK571 or 5 μM fumitremorgin C alone, 5 μM doxorubicin 3 h
Procedure: Cells were seeded at 50,000/cm² density, and grown for 7 days up to confluence in 6-well Transwell devices (0.4 μm diameter pores-size, Transwell insert surface: 4.67 cm^2; Corning Life Sciences, Chorges, France for transport assays) or 24-well Transwell devices (0.4 μm diameter pores-size, Transwell insert surface: 0.33 cm^2; Corning Life Sciences, for TEER measurements), to allow the formation of a competent BBB. […] TEER was measured using a Voltohmetro Millicell-ERS (Millipore, Bedford, MA, USA), according to the manufacturer’s instructions. […] This value was subtracted from each value obtained in the presence of the cells.
(A) Human cellular microvascular endothelial cells/D3 clone hCMEC/D3 cells were grown in the upper insert of Transwell devices for 7 days. […] Cell viability was measured by a chemiluminescence-based assay, in triplicates. Data are presented as means ± SD (n = 4). […] (B) hCMEC/D3 cells were grown in the upper insert of Transwell devices for 7 days. […] Cells were lysed and immunoblotted with the indicated antibodies. β-Tubulin level was used as control of equal protein loading. […] The amount of doxorubicin in the medium of the lower chamber was measured spectrofluorimetrically, in duplicates. […]
doxorubicin in the medium of the lower chamber was measured spectrofluorimetrically, in […]

[5] = molecular target: T1, Pgp; assay: Doxorubicin transport across Pgp-MDCK monolayer; assay type: cell-based; settings: 1 nM compound 24 h, 5 μM doxorubicin last 3 h
Procedure: (§1) MDCK, Pgp-MDCK, MRP1-MDCK and BCRP-MDCK cells were a kind gift of Dr. Maria Alessandra Contino (Department of Pharmacy, University of Bari, Italy). Culture and seeding conditions for doxorubicin transport assay were carried out as reported in [37].
(§2) Supplementary Figure S3. Effects of Pgp ligands on doxorubicin transport in Pgp-MDCK,
(§3) MRP1-MDCK and BCRP-MDCK cells
A. MDCK, Pgp-MDCK, MRP1-MDCK, BCRP-MDCK cells were lysed and immunoblotted with […]

[6] = molecular target: T1, Pgp; settings: Pgp activity, calcein-AM transport; cited from earlier work
[7] = system: hCMEC/D3 cells; assay: Transendothelial electrical resistance (TEER) of BBB monolayer; assay type: cell-based, human; settings: 24 h
[8] = molecular target: T2, MRP1 (Homo sapiens, UniProt P33527); assay: Doxorubicin transport across MRP1-MDCK monolayer; assay type: cell-based; settings: 1 nM compound 24 h, 5 μM doxorubicin last 3 h
T2 construct: expressed in transfected cells; host or cells: MDCK (Madin-Darby Canine Kidney) cells, gift of Dr. Maria Alessandra Contino, University of Bari
T2 sequence (P33527 whole entry): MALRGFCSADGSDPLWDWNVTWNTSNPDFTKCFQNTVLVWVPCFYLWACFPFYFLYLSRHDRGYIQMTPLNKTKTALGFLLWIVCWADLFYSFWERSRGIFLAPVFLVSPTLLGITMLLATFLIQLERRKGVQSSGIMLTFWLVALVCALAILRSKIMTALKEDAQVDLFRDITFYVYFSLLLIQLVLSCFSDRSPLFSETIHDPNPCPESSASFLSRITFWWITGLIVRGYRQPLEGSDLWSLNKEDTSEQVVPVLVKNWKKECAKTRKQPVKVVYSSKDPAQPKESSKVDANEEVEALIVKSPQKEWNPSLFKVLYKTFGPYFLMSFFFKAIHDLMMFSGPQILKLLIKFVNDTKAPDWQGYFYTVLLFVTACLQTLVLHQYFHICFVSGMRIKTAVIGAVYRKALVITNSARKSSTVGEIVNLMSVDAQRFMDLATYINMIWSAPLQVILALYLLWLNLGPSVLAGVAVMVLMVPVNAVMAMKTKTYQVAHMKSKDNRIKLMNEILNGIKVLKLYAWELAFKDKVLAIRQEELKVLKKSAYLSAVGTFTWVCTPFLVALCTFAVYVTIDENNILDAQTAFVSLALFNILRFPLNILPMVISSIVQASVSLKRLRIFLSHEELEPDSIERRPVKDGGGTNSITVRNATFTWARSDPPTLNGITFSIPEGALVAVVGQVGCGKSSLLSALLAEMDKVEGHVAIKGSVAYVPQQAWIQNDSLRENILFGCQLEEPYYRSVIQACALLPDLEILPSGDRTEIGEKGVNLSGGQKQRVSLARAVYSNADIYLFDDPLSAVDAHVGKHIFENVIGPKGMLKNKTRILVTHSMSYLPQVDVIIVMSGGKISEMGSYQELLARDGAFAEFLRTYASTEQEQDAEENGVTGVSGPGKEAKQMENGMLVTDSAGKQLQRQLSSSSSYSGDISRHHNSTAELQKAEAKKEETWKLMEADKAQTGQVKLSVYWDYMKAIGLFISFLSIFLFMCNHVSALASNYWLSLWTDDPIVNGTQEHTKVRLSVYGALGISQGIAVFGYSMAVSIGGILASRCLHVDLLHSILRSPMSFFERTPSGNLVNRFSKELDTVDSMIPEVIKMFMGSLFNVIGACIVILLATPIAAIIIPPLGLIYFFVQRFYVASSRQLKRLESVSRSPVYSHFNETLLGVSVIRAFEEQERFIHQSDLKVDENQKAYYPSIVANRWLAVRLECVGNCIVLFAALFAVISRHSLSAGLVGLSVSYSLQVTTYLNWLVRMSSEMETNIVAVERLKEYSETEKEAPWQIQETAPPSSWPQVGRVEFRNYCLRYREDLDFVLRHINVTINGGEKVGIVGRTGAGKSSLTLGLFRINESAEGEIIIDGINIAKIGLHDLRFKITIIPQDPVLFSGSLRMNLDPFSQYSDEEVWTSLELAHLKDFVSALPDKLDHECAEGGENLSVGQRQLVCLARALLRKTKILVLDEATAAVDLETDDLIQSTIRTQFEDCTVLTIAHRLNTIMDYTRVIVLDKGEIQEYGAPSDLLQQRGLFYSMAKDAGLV
Procedure: as §1, §2, §3
(§4) A. MDCK, Pgp-MDCK, MRP1-MDCK, BCRP-MDCK cells were lysed and immunoblotted with
(§5) h. When indicated, 50 μM verapamil (ver), an inhibitor of Pgp, 25 μM MK571, an inhibitor of […]

[9] = molecular target: T3, BCRP (Homo sapiens, UniProt Q9UNQ0); assay: Doxorubicin transport across BCRP-MDCK monolayer; assay type: cell-based; settings: 1 nM compound 24 h, 5 μM doxorubicin last 3 h
T3 construct: expressed in transfected cells; host or cells: MDCK (Madin-Darby Canine Kidney) cells, gift of Dr. Maria Alessandra Contino, University of Bari
T3 sequence (Q9UNQ0 1-655): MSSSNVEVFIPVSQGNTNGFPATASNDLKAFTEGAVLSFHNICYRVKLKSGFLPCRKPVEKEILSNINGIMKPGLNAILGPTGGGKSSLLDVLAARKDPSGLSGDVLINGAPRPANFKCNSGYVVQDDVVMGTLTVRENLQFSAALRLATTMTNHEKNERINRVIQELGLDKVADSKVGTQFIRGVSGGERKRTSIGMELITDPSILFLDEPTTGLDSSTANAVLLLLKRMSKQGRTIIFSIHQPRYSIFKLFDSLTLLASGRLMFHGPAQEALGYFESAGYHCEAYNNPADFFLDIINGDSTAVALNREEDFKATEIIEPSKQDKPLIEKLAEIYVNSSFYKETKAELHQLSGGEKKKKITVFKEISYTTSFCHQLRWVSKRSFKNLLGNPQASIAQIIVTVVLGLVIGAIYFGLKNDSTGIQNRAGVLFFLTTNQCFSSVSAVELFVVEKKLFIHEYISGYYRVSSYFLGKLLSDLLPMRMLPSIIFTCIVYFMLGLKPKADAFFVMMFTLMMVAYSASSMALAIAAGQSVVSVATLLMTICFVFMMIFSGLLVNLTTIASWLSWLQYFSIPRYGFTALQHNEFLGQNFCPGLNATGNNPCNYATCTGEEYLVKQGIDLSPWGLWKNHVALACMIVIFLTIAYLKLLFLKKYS
Procedure: as §1, §2, §3, §4, §5

[10] = system: primary human GB adherent cells (AC); assay: Cytotoxicity (LDH release, caspase 3 activity, cell viability) in glioblastoma adherent cells; assay type: cell-based; settings: 5 µM doxorubicin alone
Procedure: Cell viability was evaluated by ATPLite kit (PerkinElmer), as per manufacturer’s instructions. The results were expressed as percentage of viable cells in each experimental condition versus untreated cells (considered 100%).
The release of LDH in cell supernatant was measured as reported in [16], using a Synergy HT microplate reader. Both intracellular and extracellular enzyme activities were expressed as μmol NADH oxidized/min/dish, then extracellular LDH activity was calculated as percentage of the total LDH activity. For cytotoxicity assays in co-cultures, 5 μM doxorubicin, alone or in the presence of compounds, was added to the upper chamber of Transwell inserts. After 24 h, both cell culture medium and GB cells from the lower chamber were collected, and checked for the activity of LDH, as described above.
The activity of caspase 3, taken as an index of apoptosis, was measured by incubating 20 µg of cell lysates, collected from GB cells or GB cells growing under BBB monolayer, as reported above, with the fluorogenic substrate of caspase 3 DEVD-7-amino-4-methylcumarine (DEVD-AMC), as reported in [11]. Results were expressed as nmoles AMC/mg proteins, using a calibration curve previously set.
Figure 3 Effects of Pgp ligands on doxorubicin cytotoxicity in glioblastoma cells. Adherent cells (AC) or neurospheres (NS) from glioblastoma samples were grown for 24 h (panel A–B) or 48 h (panel C) in fresh medium (ctrl) or in the presence of 1 nM of compounds 1–6. When indicated, 5 µM doxorubicin (doxo) was co-incubated. (A) The cell culture supernatant was checked spectrophotometrically for the extracellular activity of LDH, in duplicates. Pooled data of patients 1-3 are presented as means ± SD (n = 3). Vs. AC ctrl: * p < 0.001; vs. NS ctrl: ° p < 0.001; vs. NS doxo: ^# p < 0.001. (B) The activity of caspase 3 was measured fluorimetrically, in duplicates. Data are means ± SD (n = 3). Pooled data of patients 1–3 are presented as means ± SD (n = 3). Vs. AC ctrl: * p < 0.001; vs. NS ctrl: ° p < 0.01; vs. NS doxo: ^# p < 0.05. […] Pooled data of patients 1-3 are presented as means ± SD (n = 3). […]

lucifer yellow
permeability coefficient across BBB monolayer [1]: 0.43 ± 0.11 × 10^−3 cm·min^−1

COc1cc2c(cc1OC)CN(Cc1ccc(-c3ccc(O)cc3)cc1)CC2 [7 (MC70), 4′-(6,7-Dimethoxy-3,4-dihydro-1H-isoquinolin-2-ylmethyl)biphenyl-4-ol]
apparent permeability ratio [2]: < 2 | ATP depletion [3]: does not induce ATP depletion

COc1ccc2c3c([nH]c2c1)[C@H](C=C(C)C)N1C(=O)[C@@H]2CCCN2C(=O)[C@@H]1C3 [fumitremorgin C]
doxorubicin delivery across hCMEC/D3 cells monolayer [4]: increased

CCCCOc1ccc(-c2ccc(CN3CCc4cc(OC)c(OC)cc4C3)cc2)cc1 [Compound 6]
doxorubicin permeability across Pgp-MDCK monolayer [5]: did not change | EC50 [6]: 5.2 nM | TEER (Ω cm^2) Compound 1 nM ([7]; 1 nM compound): 33 ± 2 Ω cm^2 | TEER (Ω cm^2) Compound 100 nM ([7]; 100 nM compound): 31 ± 4 Ω cm^2 | doxorubicin delivery across MRP1-MDCK cells [8]: strongly reduced | doxorubicin delivery across BCRP-MDCK cells [9]: strongly reduced

COc1cccc2c1C(=O)c1c(O)c3c(c(O)c1C2=O)C[C@@](O)(C(=O)CO)C[C@@H]3O[C@H]1C[C@H](N)[C@H](O)[C@H](C)O1 [doxorubicin]
LDH release ([10]; 24 h): increased | caspase 3 activity ([10]; 24 h): increased | cell viability ([10]; 48 h): decreased

[^14C]-inulin
permeability coefficient across BBB monolayer ([1]; hCMEC/D3 monolayer without compounds, 3 h): 0.45 ± 0.07 × 10^−3 cm·min^−1

CN(C)C(=O)CCSC(SCCC(=O)O)c1cccc(/C=C/c2ccc3ccc(Cl)cc3n2)c1 (stereo not drawn) [MK571]
doxorubicin delivery across hCMEC/D3 cells monolayer [4]: increased
